In US9598389B2, “Dihydrobenzofuran derivatives as insecticidal compounds” (SYNGENTA PARTICIPATIONS AG, priority 2013, dated 2017):

Experiments:
Type in all cases: in vivo
[1] = system: Spodoptera Littoralis (Egyptian Cotton Leaf Worm); test: Spodoptera littoralis cotton leaf disc spray test; details: foliar, 72 h, application rate of 200 ppm, L1 larvae, 3 days after infestation, read-out: control (at least one of mortality, anti-feedant effect, growth inhibition)
Procedure: Spodoptera Littoralis (Egyptian Cotton Leaf Worm)
Cotton leaf discs were placed on agar in 24-well microtiter plates and sprayed with aqueous test solutions prepared from 10,000 ppm DMSO stock solutions. After drying the leaf discs were infested with five L1 larvae. The samples were assessed for mortality, anti-feedant effect, and growth inhibition in comparison to untreated samples 3 days after infestation. Control of Spodoptera littoralis by a test sample is when at least one of mortality, anti-feedant effect, and growth inhibition is higher than the untreated sample.

[2] = system: Heliothis virescens (Tobacco Budworm); test: Heliothis virescens egg/larval test on artificial diet; details: application rate of 200 ppm, eggs 0-24 h old, 5 days after infestation, read-out: egg or larval mortality
Procedure: Heliothis virescens (Tobacco Budworm):
Eggs (0-24 h old) were placed in 24-well microtiter plates on artificial diet and treated with aqueous test solutions prepared from 10,000 ppm DMSO stock solutions by pipetting. The samples were assessed for egg and larval mortality 5 days after infestation.

[3] = system: Plutella xylostella (Diamond Back Moth); test: Plutella xylostella L2 larvae test on artificial diet; details: 120 h, application rate of 200 ppm, 5 days after infestation, read-out: effect in at least one of the two categories (mortality or growth inhibition)
Procedure: Plutella xylostella (Diamond Back Moth):
(§1) 24-well microtiter plates with artificial diet were treated with aqueous test solutions prepared from 10,000 ppm DMSO stock solutions by pipetting. After drying, the plates were infested with L2 larvae (10 to 15 per well). The samples were assessed for mortality and growth inhibition in comparison to untreated samples 5 days after infestation.

[4] = system: Diabrotica balteata (Corn Root Worm); test: Diabrotica balteata L2 larvae test on artificial diet; details: 120 h, application rate of 200 ppm, 5 days after infestation, read-out: effect in at least one of the two categories (mortality or growth inhibition)
Procedure: Diabrotica balteata (Corn Root Worm):
as §1, with “(6” for “(10”, “10” for “15”

[5] = system: Myzus persicae (Green Peach Aphid); test: Myzus persicae sucrose solution feeding test; details: 120 h, test rate of 12 ppm, 5 days after infestation
Procedure: Myzus persicae (Green Peach Aphid)
Test compounds from 10,000 ppm DMSO stock solutions were applied by pipette into 24-well microtiter plates and mixed with sucrose solution. The plates were closed with a stretched Parafilm. A plastic stencil with 24 holes was placed onto the plate and infested pea seedlings were placed directly on the Parafilm. The infested plate was closed with a gel blotting paper and another plastic stencil and then turned upside down. The samples were assessed for mortality 5 days after infestation.

[6] = system: Thrips tabaci (Onion Thrips); test: Thrips tabaci sunflower leaf disc spray test; details: foliar, 144 h, application rate of 200 ppm, population of mixed ages, 6 days after infestation
Procedure: Thrips tabaci (Onion Thrips):
(§2) Sunflower leaf discs were placed on agar in 24-well microtiter plates and sprayed with aqueous test solutions prepared from 10,000 ppm DMSO stock solutions. After drying the leaf discs were infested with a thrips population of mixed ages. The samples were assessed for mortality 6 days after infestation.

[7] = system: Tetranychus urticae (Two-Spotted Spider Mite); test: Tetranychus urticae bean leaf disc spray test; details: foliar, 192 h, application rate of 200 ppm, 8 days after infestation, read-out: mortality on mixed population (mobile stages)
Procedure: Tetranychus urticae (Two-Spotted Spider Mite):
as §2, with “Bean” for “Sunflower”, “discs” for “discs were placed”, “were” for “and”, “mite” for “thrips”, “on mixed population (mobile stages) 8” for “6”

O=C(Nc1cccc(-c2ccc3c(c2)CC(c2cc(Cl)cc(Cl)c2)(C(F)(F)F)O3)c1F)C1CC1 (stereo not shown) [Compound 42, N-(3-(2-(3,5-dichlorophenyl)-2-(trifluoromethyl)-2,3-dihydrobenzofuran-5-yl)-2-fluorophenyl)cyclopropanecarboxamide]
≥ 80%: percent control (mortality, anti-feedant effect or growth inhibition) at 200 ppm [1] | mortality at 200 ppm [2]

CCC(=O)Nc1ccnc(-c2cc3c(cc2Cl)OC(c2cc(Cl)cc(Cl)c2)(C(F)(F)F)C3)c1 (stereo not shown) [Compound 136, N-[2-[6-chloro-2-(3,5-dichlorophenyl)-2-(trifluoromethyl)-3H-benzofuran-5-yl]-4-pyridyl]propanamide]
≥ 80%: percent control (mortality, anti-feedant effect or growth inhibition) at 200 ppm [1] | mortality at 200 ppm [2] | percent effect (mortality or growth inhibition) at 200 ppm [3]

O=C(Nc1cc(-c2ccc3c(c2)CC(c2cc(Cl)cc(Cl)c2)(C(F)(F)F)O3)ccn1)C1CC1 (stereo not shown) [Compound 137, N-[4-[2-(3,5-dichlorophenyl)-2-(trifluoromethyl)-3H-benzofuran-5-yl]-2-pyridyl]cyclopropanecarboxamide]
≥ 80%: percent effect (mortality or growth inhibition) at 200 ppm [4] | percent control (mortality, anti-feedant effect or growth inhibition) at 200 ppm [1] | mortality at 200 ppm [2] | percent effect (mortality or growth inhibition) at 200 ppm [3]

O=C(Nc1cccc(-c2ccc3c(c2)CC(c2cc(Cl)cc(Cl)c2)(C(F)(F)F)O3)c1)C1CC1 (stereo not shown) [Compound 141, N-(3-(2-(3,5-dichlorophenyl)-2-(trifluoromethyl)-2,3-dihydrobenzofuran-5-yl)phenyl)cyclopropanecarboxamide]
≥ 80%: percent effect (mortality or growth inhibition) at 200 ppm [4] | percent control (mortality, anti-feedant effect or growth inhibition) at 200 ppm [1] | mortality at 12 ppm [5] | mortality at 200 ppm [2] | percent effect (mortality or growth inhibition) at 200 ppm [3] | mortality at 200 ppm [6]

O=C(Nc1cccc(-c2ccc3c(c2)CC(c2cccc(C(F)(F)F)c2)(C(F)(F)F)O3)c1)C1CC1 (stereo not shown) [Compound 182, N-(3-(2-(trifluoromethyl)-2-(3-(trifluoromethyl)phenyl)-2,3-dihydrobenzofuran-5-yl)phenyl)cyclopropanecarboxamide]
≥ 80%: percent control (mortality, anti-feedant effect or growth inhibition) at 200 ppm [1] | mortality at 200 ppm [2] | percent effect (mortality or growth inhibition) at 200 ppm [3]

CCC(=O)Nc1cc(-c2ccc3c(c2)CC(c2cc(Cl)cc(Cl)c2)(C(F)(F)F)O3)ccc1C#N (stereo not shown) [Compound 198, N-[2-cyano-5-[2-(3,5-dichlorophenyl)-2-(trifluoromethyl)-3H-benzofuran-5-yl]phenyl]propanamide]
≥ 80%: percent effect (mortality or growth inhibition) at 200 ppm [4] | percent control (mortality, anti-feedant effect or growth inhibition) at 200 ppm [1] | mortality at 12 ppm [5] | mortality at 200 ppm [7] | mortality at 200 ppm [2] | percent effect (mortality or growth inhibition) at 200 ppm [3] | mortality at 200 ppm [6]

O=C1CCCN1c1cccc(-c2ccc3c(c2)CC(c2cc(Cl)cc(Cl)c2)(C(F)(F)F)O3)c1 (stereo not shown) [Compound 254, 1-{3-[2-(3,5-Dichloro-phenyl)-2-trifluoromethyl-2,3-dihydro-benzofuran-5-yl]-phenyl}-pyrrolidin-2-one]
≥ 80%: percent effect (mortality or growth inhibition) at 200 ppm [3]

N#Cc1ccc(-c2ccc3c(c2)CC(c2cc(Cl)cc(Cl)c2)(C(F)(F)F)O3)cc1N1CCCC1=O (stereo not shown) [Compound 261, 4-[2-(3,5-Dichloro-phenyl)-2-trifluoromethyl-2,3-dihydro-benzofuran-5-yl]-2-(2-oxo-pyrrolidin-1-yl)-benzonitrile]
≥ 80%: percent control (mortality, anti-feedant effect or growth inhibition) at 200 ppm [1] | percent effect (mortality or growth inhibition) at 200 ppm [3]

CCC(=O)Nc1cc(-c2ccc3c(c2)CC(c2cc(Cl)cc(Cl)c2)(C(F)(F)F)S3)ccc1C#N (stereo not shown) [Compound 267, N-{2-Cyano-5-[2-(3,5-dichloro-phenyl)-2-trifluoromethyl-2,3-dihydro-benzo[b]thiophen-5-yl]-phenyl}-propionamide]
≥ 80%: percent control (mortality, anti-feedant effect or growth inhibition) at 200 ppm [1] | percent effect (mortality or growth inhibition) at 200 ppm [3]

CCC(=O)Nc1cccc(-c2ccc3c(c2)CC(c2cc(Cl)cc(Cl)c2)(C(F)(F)F)S3)c1 (stereo not shown) [Compound 268, N-[3-[2-(3,5-dichlorophenyl)-2-(trifluoromethyl)-3H-benzothiophen-5-yl]phenyl]propanamide]
≥ 80%: percent control (mortality, anti-feedant effect or growth inhibition) at 200 ppm [1] | mortality at 12 ppm [5] | percent effect (mortality or growth inhibition) at 200 ppm [3] | mortality at 200 ppm [6]

CCC(=O)Nc1cccc(-c2ccc3c(c2)CC(c2cc(Cl)cc(Cl)c2)(C(F)(F)F)C3=O)c1 (stereo not shown) [Compound 269, N-{3-[2-(3,5-Dichloro-phenyl)-1-oxo-2-trifluoromethyl-indan-5-yl]-phenyl}-propionamide]
≥ 80%: percent effect (mortality or growth inhibition) at 200 ppm [4] | percent control (mortality, anti-feedant effect or growth inhibition) at 200 ppm [1] | mortality at 200 ppm [2] | percent effect (mortality or growth inhibition) at 200 ppm [3] | mortality at 200 ppm [6]

CCC(=O)Nc1cccc(-c2ccc3c(c2)CC(c2cc(Cl)cc(Cl)c2)(C(F)(F)F)C3O)c1 (stereo not shown) [Compound 270, N-{3-[2-(3,5-Dichloro-phenyl)-1-hydroxy-2-trifluoromethyl-indan-5-yl]-phenyl}-propionamide]
≥ 80%: percent effect (mortality or growth inhibition) at 200 ppm [4] | percent control (mortality, anti-feedant effect or growth inhibition) at 200 ppm [1] | mortality at 200 ppm [2] | percent effect (mortality or growth inhibition) at 200 ppm [3]
